Measurements: the supplement of paper PMC11451515

What was measured:
Conditions in all cases: 48 h
[1] = tested on: NOMO1; assay: cell viability relative to DMSO control; higher = less cytotoxic
In short: (§1)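 NOMO1, SEM and P12-Ichikawa leukemia cells spent at least four passages adapting to each medium before use. They were seeded at 500 cells/well (NOMO1, SEM) or 1000 cells/well (P12-Ichikawa) in 5 μl in 1536-well plates and pin-dosed with library compounds in DMSO at 11 threefold steps from 47 μM down to 0.79 nM. After 48 h at 37°C, CellTiter-Glo One luminescence was read. Viability is reported as a percentage of the DMSO wells on each plate, with cell-free wells as background.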

[2] = tested on: P12-Ichikawa; assay: as above
In short: as §1

[3] = tested on: SEM cells; assay: as above
In short: as §1

[4] = tested on: NOMO1; assay: AUC of viability dose-response curve (% viability x log10 dose units); higher = less sensitive
In short: (§2)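 Over 48 h at 37°C, leukemia cells in 1536-well plates (500 or 1000 cells/well), adapted to each medium, received library compounds in DMSO at 11 threefold doses from 47 μM to 0.79 nM. CellTiter-Glo One luminescence, normalised per plate to DMSO and cell-free wells, was fitted by a four-parameter log-logistic function of log10 dose. The area under the curve was then integrated by trapezoidal rule, after scaling curves above full viability and removing those that failed quality control.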

[5] = tested on: P12-Ichikawa; assay: as above
In short: as §2

[6] = tested on: SEM cells; assay: as above
In short: as §2

CN(C)CCOc1ccc(/C(=C(/CCCl)c2ccccc2)c2ccccc2)cc1
cell viability [%]
Conditions	[1]	[2]	[3]
HPLM + 10% dialyzed FBS, 0.000781 µM	105	102	54.7
HPLM + 10% dialyzed FBS, 0.00234 µM	116	110	92.8
HPLM + 10% dialyzed FBS, 0.00702 µM	98	107	85.2
HPLM + 10% dialyzed FBS, 0.0211 µM	94.7	107	94.2
HPLM + 10% dialyzed FBS, 0.0632 µM	104	106	108
HPLM + 10% dialyzed FBS, 0.19 µM	126	112	85.6
HPLM + 10% dialyzed FBS, 0.569 µM	100	111	88
HPLM + 10% dialyzed FBS, 1.71 µM	115	88.6	94.6
HPLM + 10% dialyzed FBS, 5.12 µM	95.5	67.2	58.5
HPLM + 10% dialyzed FBS, 15.4 µM	68.5	59.1	34
HPLM + 10% dialyzed FBS, 46.1 µM	42.2	34.9	16.5
RPMI 5 mM glucose + 10% FBS, 0.000781 µM	106	108	54.5
RPMI 5 mM glucose + 10% FBS, 0.00234 µM	104	109	100
RPMI 5 mM glucose + 10% FBS, 0.00702 µM	111	112	74.7
RPMI 5 mM glucose + 10% FBS, 0.0211 µM	109	108	96.7
RPMI 5 mM glucose + 10% FBS, 0.0632 µM	103	109	98.4
RPMI 5 mM glucose + 10% FBS, 0.19 µM	94.2	102	99.5
RPMI 5 mM glucose + 10% FBS, 0.569 µM	115	103	100
RPMI 5 mM glucose + 10% FBS, 1.71 µM	105	83.1	74.8
RPMI 5 mM glucose + 10% FBS, 5.12 µM	99.1	57.9	39.5
RPMI 5 mM glucose + 10% FBS, 15.4 µM	57.3	50.5	22.1
RPMI 5 mM glucose + 10% FBS, 46.1 µM	39.6	32.2	11.9
RPMI 5 mM glucose + 10% dialyzed FBS, 0.000781 µM	93.4	102	45.9
RPMI 5 mM glucose + 10% dialyzed FBS, 0.00234 µM	110	107	96.8
RPMI 5 mM glucose + 10% dialyzed FBS, 0.00702 µM	113	112	83.6
RPMI 5 mM glucose + 10% dialyzed FBS, 0.0211 µM	116	111	102
RPMI 5 mM glucose + 10% dialyzed FBS, 0.0632 µM	108	109	117
RPMI 5 mM glucose + 10% dialyzed FBS, 0.19 µM	125	102	97.5
RPMI 5 mM glucose + 10% dialyzed FBS, 0.569 µM	108	112	85.8
RPMI 5 mM glucose + 10% dialyzed FBS, 1.71 µM	120	80.3	85.2
RPMI 5 mM glucose + 10% dialyzed FBS, 5.12 µM	107	58.1	57.6
RPMI 5 mM glucose + 10% dialyzed FBS, 15.4 µM	76.9	44.1	36.1
RPMI 5 mM glucose + 10% dialyzed FBS, 46.1 µM	50.6	42.7	22.6

AUC of viability dose-response curve
Conditions	[4]	[5]	[6]
HPLM + 10% dialyzed FBS	441	410	362
RPMI 5 mM glucose + 10% FBS	437	393	344
RPMI 5 mM glucose + 10% dialyzed FBS	448	399	369

O=C1CCCC(=O)C1C(=O)c1ccc(C(F)(F)F)cc1[N+](=O)[O-]
cell viability [%]
Conditions	[1]	[2]	[3]
HPLM + 10% dialyzed FBS, 0.000781 µM	138	106	112
HPLM + 10% dialyzed FBS, 0.00234 µM	110	106	115
HPLM + 10% dialyzed FBS, 0.00702 µM	105	108	100
HPLM + 10% dialyzed FBS, 0.0211 µM	107	118	107
HPLM + 10% dialyzed FBS, 0.0632 µM	103	112	108
HPLM + 10% dialyzed FBS, 0.19 µM	106	113	108
HPLM + 10% dialyzed FBS, 0.569 µM	111	106	114
HPLM + 10% dialyzed FBS, 1.71 µM	118	105	102
HPLM + 10% dialyzed FBS, 5.12 µM	113	110	106
HPLM + 10% dialyzed FBS, 15.4 µM	93.6	98.3	113
HPLM + 10% dialyzed FBS, 46.1 µM	54.3	100	108
RPMI 5 mM glucose + 10% FBS, 0.000781 µM	102	123	109
RPMI 5 mM glucose + 10% FBS, 0.00234 µM	105	116	103
RPMI 5 mM glucose + 10% FBS, 0.00702 µM	99.2	114	112
RPMI 5 mM glucose + 10% FBS, 0.0211 µM	99.9	123	98.4
RPMI 5 mM glucose + 10% FBS, 0.0632 µM	104	113	109
RPMI 5 mM glucose + 10% FBS, 0.19 µM	98.4	109	97.5
RPMI 5 mM glucose + 10% FBS, 0.569 µM	103	119	112
RPMI 5 mM glucose + 10% FBS, 1.71 µM	99.4	110	101
RPMI 5 mM glucose + 10% FBS, 5.12 µM	98.4	111	108
RPMI 5 mM glucose + 10% FBS, 15.4 µM	99.4	109	85.9
RPMI 5 mM glucose + 10% FBS, 46.1 µM	92.8	105	86
RPMI 5 mM glucose + 10% dialyzed FBS, 0.000781 µM	103	113	105
RPMI 5 mM glucose + 10% dialyzed FBS, 0.00234 µM	108	113	104
RPMI 5 mM glucose + 10% dialyzed FBS, 0.00702 µM	105	107	110
RPMI 5 mM glucose + 10% dialyzed FBS, 0.0211 µM	90.1	110	110
RPMI 5 mM glucose + 10% dialyzed FBS, 0.0632 µM	92	115	127
RPMI 5 mM glucose + 10% dialyzed FBS, 0.19 µM	111	110	106
RPMI 5 mM glucose + 10% dialyzed FBS, 0.569 µM	105	108	111
RPMI 5 mM glucose + 10% dialyzed FBS, 1.71 µM	113	110	129
RPMI 5 mM glucose + 10% dialyzed FBS, 5.12 µM	96.7	108	113
RPMI 5 mM glucose + 10% dialyzed FBS, 15.4 µM	95.3	104	115
RPMI 5 mM glucose + 10% dialyzed FBS, 46.1 µM	92.6	99.5	102

AUC of viability dose-response curve
Conditions	[4]	[5]	[6]
HPLM + 10% dialyzed FBS	403	465	474
RPMI 5 mM glucose + 10% FBS	471	450	464
RPMI 5 mM glucose + 10% dialyzed FBS	463	468	466

Nc1ccc([S+](=O)([O-])Nc2ncccn2)cc1
cell viability [%]
Conditions	[1]	[2]	[3]
HPLM + 10% dialyzed FBS, 0.000781 µM	115	118	100
HPLM + 10% dialyzed FBS, 0.00234 µM	121	120	103
HPLM + 10% dialyzed FBS, 0.00702 µM	130	124	105
HPLM + 10% dialyzed FBS, 0.0211 µM	126	95.8	96.8
HPLM + 10% dialyzed FBS, 0.0632 µM	136	128	109
HPLM + 10% dialyzed FBS, 0.19 µM	127	131	117
HPLM + 10% dialyzed FBS, 0.569 µM	129	126	99.7
HPLM + 10% dialyzed FBS, 1.71 µM	138	125	110
HPLM + 10% dialyzed FBS, 5.12 µM	142	125	103
HPLM + 10% dialyzed FBS, 15.4 µM	129	119	109
HPLM + 10% dialyzed FBS, 46.1 µM	120	126	112
RPMI 5 mM glucose + 10% FBS, 0.000781 µM	–	115	110
RPMI 5 mM glucose + 10% FBS, 0.00234 µM	–	114	108
RPMI 5 mM glucose + 10% FBS, 0.00702 µM	–	122	120
RPMI 5 mM glucose + 10% FBS, 0.0211 µM	–	74.2	86.1
RPMI 5 mM glucose + 10% FBS, 0.0632 µM	–	133	117
RPMI 5 mM glucose + 10% FBS, 0.19 µM	–	118	117
RPMI 5 mM glucose + 10% FBS, 0.569 µM	–	127	108
RPMI 5 mM glucose + 10% FBS, 1.71 µM	–	126	122
RPMI 5 mM glucose + 10% FBS, 5.12 µM	–	132	126
RPMI 5 mM glucose + 10% FBS, 15.4 µM	–	133	114
RPMI 5 mM glucose + 10% FBS, 46.1 µM	–	106	110
RPMI 5 mM glucose + 10% dialyzed FBS, 0.000781 µM	–	–	111
RPMI 5 mM glucose + 10% dialyzed FBS, 0.00234 µM	–	–	109
RPMI 5 mM glucose + 10% dialyzed FBS, 0.00702 µM	–	–	125
RPMI 5 mM glucose + 10% dialyzed FBS, 0.0211 µM	–	–	74.4
RPMI 5 mM glucose + 10% dialyzed FBS, 0.0632 µM	–	–	122
RPMI 5 mM glucose + 10% dialyzed FBS, 0.19 µM	–	–	136
RPMI 5 mM glucose + 10% dialyzed FBS, 0.569 µM	–	–	133
RPMI 5 mM glucose + 10% dialyzed FBS, 1.71 µM	–	–	129
RPMI 5 mM glucose + 10% dialyzed FBS, 5.12 µM	–	–	145
RPMI 5 mM glucose + 10% dialyzed FBS, 15.4 µM	–	–	134
RPMI 5 mM glucose + 10% dialyzed FBS, 46.1 µM	–	–	124

AUC of viability dose-response curve
Conditions	[4]	[5]	[6]
HPLM + 10% dialyzed FBS	467	464	460
RPMI 5 mM glucose + 10% FBS	444	452	462
RPMI 5 mM glucose + 10% dialyzed FBS	452	471	437
